Experimental data as given in patent publication US10906896B2, “Compositions and methods for inhibiting kinases” (Inhibikase Therapeutics, Inc., priority 2015, dated 2021).

How the values were obtained:
[1] = tested on: Ba/F3 cells harboring BCR-ABL E255K; experiment: Ba/F3 proliferation, BCR-ABL E255K; assay type: cell-based; conditions: 48 hrs, IL-3 withdrawn
[2] = tested on: Ba/F3 cells harboring BCR-ABL Y253H; experiment: Ba/F3 proliferation, BCR-ABL Y253H; assay type: cell-based; conditions: 48 hrs, IL-3 withdrawn
Method: (§1) IL-3 was subsequently withdrawn from these populations.
(§2) Final concentrations of each compound were 10 μM, 1 μM, 100 nM, 10 nM, 1 nM, 0.1 nM, 0 nM (plus a blank-media only).

[3] = tested on: untransduced Ba/F3 cells grown in the presence of IL-3; experiment: Ba/F3 proliferation, parental cells (Cell Titer Glo); assay type: cell-based; conditions: 48 hrs, with IL-3
Method: as §1, §2

[4] = tested on: Ba/F3 cells harboring BCR-ABL F359V; experiment: Ba/F3 proliferation, BCR-ABL F359V; assay type: cell-based; conditions: 48 hrs, IL-3 withdrawn
[5] = tested on: Ba/F3 cells harboring BCR-ABL T315I; experiment: Ba/F3 proliferation, BCR-ABL T315I; assay type: cell-based; conditions: 48 hrs, IL-3 withdrawn
Method: as §1, §2

[6] = tested on: Ba/F3 cells harboring BCR-ABL E255V; experiment: Ba/F3 proliferation, BCR-ABL E255V; assay type: cell-based; conditions: 48 hrs, IL-3 withdrawn
Method: as §1, §2

[7] = tested on: BCR-ABL; conditions: cited from earlier work
[8] = target: c-Abl1 (Homo sapiens (Human), UniProt P00519); experiment: c-Abl1 IC50 (FAM-labeled peptide kinase assay); assay type: biochemical
Chain of c-Abl1 (P00519 whole entry): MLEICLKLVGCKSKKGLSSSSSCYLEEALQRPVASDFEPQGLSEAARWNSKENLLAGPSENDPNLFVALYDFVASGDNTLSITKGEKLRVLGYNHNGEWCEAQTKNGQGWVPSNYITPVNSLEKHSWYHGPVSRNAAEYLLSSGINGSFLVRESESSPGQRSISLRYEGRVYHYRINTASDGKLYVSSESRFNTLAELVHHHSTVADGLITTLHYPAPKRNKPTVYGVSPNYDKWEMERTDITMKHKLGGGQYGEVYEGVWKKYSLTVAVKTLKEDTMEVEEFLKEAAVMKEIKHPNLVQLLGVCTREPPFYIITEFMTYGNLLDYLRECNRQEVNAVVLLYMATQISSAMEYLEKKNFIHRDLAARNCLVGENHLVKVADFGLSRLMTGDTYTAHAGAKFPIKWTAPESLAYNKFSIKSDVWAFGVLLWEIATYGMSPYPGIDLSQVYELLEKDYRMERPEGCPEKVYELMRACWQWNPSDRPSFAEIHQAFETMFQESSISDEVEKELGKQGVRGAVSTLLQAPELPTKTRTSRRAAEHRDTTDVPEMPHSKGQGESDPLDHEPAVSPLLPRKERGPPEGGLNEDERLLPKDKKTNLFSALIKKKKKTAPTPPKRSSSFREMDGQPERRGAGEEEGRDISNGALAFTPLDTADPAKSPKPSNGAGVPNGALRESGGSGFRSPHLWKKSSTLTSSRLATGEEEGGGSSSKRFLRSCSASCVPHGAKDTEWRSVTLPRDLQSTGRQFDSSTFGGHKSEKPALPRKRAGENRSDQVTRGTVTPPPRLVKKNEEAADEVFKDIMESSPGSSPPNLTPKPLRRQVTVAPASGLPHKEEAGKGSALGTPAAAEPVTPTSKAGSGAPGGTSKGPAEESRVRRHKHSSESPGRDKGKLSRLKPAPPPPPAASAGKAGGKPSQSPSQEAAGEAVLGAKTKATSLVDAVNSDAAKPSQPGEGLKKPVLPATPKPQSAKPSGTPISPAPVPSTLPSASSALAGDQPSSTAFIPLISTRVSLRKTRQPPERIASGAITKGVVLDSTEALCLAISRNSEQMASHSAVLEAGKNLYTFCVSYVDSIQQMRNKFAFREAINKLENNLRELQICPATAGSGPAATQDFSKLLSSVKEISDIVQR
Method: Measurement of c-Abl1, c-Abl2 and c-Kit IC50 Values
For the assay of enzyme inhibitions, 5 μl of each well from the intermediate plate is transferred to a 384-well plate in duplicates, 10. […] Then enzyme substrate is added as 10 μl of 2.5×FAM-labeled peptide+ATP solution to each well of the 384-well assay plate. The reaction is allowed to proceed at 28° C. and quenched with the addition of 25 μl of stop buffer. The release of fluorescent FAM is quantitated as Percent inhibition=(max−conversion)/(max−min)*100. ? “max” stands for DMSO control; “min” stands for low control. Data are fit in XLFit excel add-in version 4.3.1 to obtain IC50 values. Equation used is: Y=Bottom+(Top−Bottom)/(1+(IC50/X)^HillSlope)

[9] = tested on: JCV laboratory strain MAD-1; experiment: JCV antiviral potency in Cos 7 cells; assay type: cell-based, JC polyomavirus (JCV)

Compound | IC50 [1] [nM] | IC50 [2] [nM] | IC50 [3] [nM] | IC50 [4] [nM] | IC50 [5] [nM] | IC50 [6] [nM] | potency as an inhibitor of BCR-ABL relative to Gleevec [7] [×] | IC50 [8] [µM] | antiviral activity against JCV [9]
Cc1cc(NC(=O)C2=NN=C(c3cncc(-c4ccnc(Nc5cc(NC(=O)c6ccc(CN7CCN(C)CC7)cc6)ccc5C)n4)c3)C2)[nH]n1 [Compound 113] | 46.9 | 1430 | 2060 | 161 | 2120 | 739 |  |  | 
Cc1cnc(-c2cncc(-c3ccnc(Nc4cc(NC(=O)c5ccc(CN6CCN(C)CC6)cc5)ccc4C)n3)c2)s1 [Compound 8280] | 234 |  | 2610 | 251 | 2770 | 2390 |  |  | 
Cc1csc(-c2cncc(-c3ccnc(Nc4cc(NC(=O)c5ccc(CN6CCN(C)CC6)cc5)ccc4C)n3)c2)n1 [Compound 8290] | 80.4 |  | 2580 | 375 | 2480 | 1440 |  |  | 
Cc1ccc(-c2cncc(-c3ccnc(Nc4cc(NC(=O)c5ccc(CN6CCN(C)CC6)cc5)ccc4C)n3)c2)nc1 [Compound 820] | 204 |  | 2480 | 260 | 2300 | 2670 |  |  | 
Cc1ccc(NC(=O)c2ccc(CN3CCN(C)CC3)cc2)cc1Nc1nccc(-c2cncc(-c3nccs3)c2)n1 [Compound 8270] | 45.9 |  | 2520 | 203 | 2790 | 1030 |  |  | 
Cc1ccc(NC(=O)c2ccc(CN3CCN(C)CC3)cc2)cc1Nc1nccc(-c2cncc(-c3ccn(C)n3)c2)n1 [Compound 832] | 90.9 |  | 2480 | 46.7 | 2590 | 661 |  |  | 
Cc1cc(-c2cncc(-c3ccnc(Nc4cc(NC(=O)c5ccc(CN6CCN(C)CC6)cc5)ccc4C)n3)c2)sn1 [Compound 8190] | 390 |  | 2240 | 236 | 2680 | 997 |  |  | 
Cc1cn(-c2cc(NC(=O)c3ccc(C)c(Nc4nccc(-c5cccnc5)n4)c3)cc(C(F)(F)F)c2)cn1 [Tasigna, nilotinib] |  |  |  |  |  |  | ≤ 20 |  | 
Cc1ccc(NC(=O)c2ccc(CN3CCN(C)CC3)cc2)cc1Nc1nccc(-c2cncc(-c3snnc3C)c2)n1 [Compound 8240] |  |  |  |  |  |  |  | > 1 | 
Cc1cc(NC(=O)C2=NN=C(c3cncc(-c4ccnc(Nc5cc(NC(=O)c6ccc(CN7CCN(C)CC7)cc6)ccc5C)n4)c3)C2)ccn1 [Compound 103] | 196 | 2590 | 2920 | 135 | 2910 | 1200 |  |  | 
Cc1ccc(NC(=O)c2ccc(CN3CCN(C)CC3)cc2)cc1Nc1nccc(-c2cncc(C3=NN=C(C(=O)Nc4cn[nH]c4)C3)c2)n1 [Compound 118] |  |  |  |  |  |  |  |  | little antiviral activity
